Consider 2 molecules from ChEMBL document CHEMBL4130363, “Synthesis and pharmacological evaluation of benzamide derivatives as potent and selective sigma-1 protein ligands” (Eur J Med Chem, 2017).

pIC50: −log10 of the molar value.

In series [1] the target is T1, Neuropeptide Y receptor type 1 (Homo sapiens) (UniProt P25929).
T1 sequence (whole entry): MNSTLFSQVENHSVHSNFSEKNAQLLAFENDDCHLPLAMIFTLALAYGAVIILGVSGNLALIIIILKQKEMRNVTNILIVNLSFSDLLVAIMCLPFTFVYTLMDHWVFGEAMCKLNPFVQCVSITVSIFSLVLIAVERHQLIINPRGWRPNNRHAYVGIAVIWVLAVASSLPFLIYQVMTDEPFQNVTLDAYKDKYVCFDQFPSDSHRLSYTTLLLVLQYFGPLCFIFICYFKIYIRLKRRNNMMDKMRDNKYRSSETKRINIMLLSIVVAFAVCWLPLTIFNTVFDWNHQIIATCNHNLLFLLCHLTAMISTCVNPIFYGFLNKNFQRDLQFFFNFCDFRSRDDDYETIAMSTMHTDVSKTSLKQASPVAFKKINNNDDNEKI
Briefly: Antagonist activity at recombinant human NPY1R assessed as inhibition of agonist-induced cAMP levels at 10 uM by HTRF assay. In kind it is functional.

For series [2], the target named is Cannabinoid receptor 1 (Homo sapiens) (UniProt P21554). Briefly: Antagonist activity at recombinant human CB1 receptor assessed as inhibition of agonist-induced cAMP induction at 10 uM by HTRF assay. In kind it is functional.
In series [3] the target is Delta-type opioid receptor (Homo sapiens) (UniProt P41143). Briefly: Antagonist activity at human delta-type opioid receptor assessed as inhibition of agonist-induced effect at 10 uM by GTPgamma[35S] binding-based assay. It counts as functional.
Series [4] has as its target 5-hydroxytryptamine receptor 4 (Homo sapiens) (UniProt Q13639). Briefly: Agonist activity at recombinant human 5-HT4E assessed as induction of cAMP levels at 10 uM by HTRF assay relative to agonist. In kind it is functional.
The target in series [5] is T2, Type-1 angiotensin II receptor (Homo sapiens) (UniProt P30556).
T2 sequence (whole entry): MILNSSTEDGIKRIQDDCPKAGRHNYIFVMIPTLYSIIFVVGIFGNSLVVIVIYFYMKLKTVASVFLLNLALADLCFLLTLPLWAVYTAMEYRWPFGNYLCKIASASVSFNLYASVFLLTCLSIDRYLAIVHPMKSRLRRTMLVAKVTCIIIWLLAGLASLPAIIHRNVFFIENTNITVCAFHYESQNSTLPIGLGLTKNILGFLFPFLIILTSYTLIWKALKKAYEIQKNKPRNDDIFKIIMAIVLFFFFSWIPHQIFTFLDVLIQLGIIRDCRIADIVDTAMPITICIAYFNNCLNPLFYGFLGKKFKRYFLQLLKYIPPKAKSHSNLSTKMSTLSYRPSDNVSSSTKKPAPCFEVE
Briefly: Antagonist activity at recombinant human AT1 receptor assessed as inhibition of agonist-induced […] reporter based assay. In kind it is functional.

The target in series [6] is T3, Endothelin-1 receptor (Homo sapiens) (UniProt P25101).
T3 sequence (whole entry): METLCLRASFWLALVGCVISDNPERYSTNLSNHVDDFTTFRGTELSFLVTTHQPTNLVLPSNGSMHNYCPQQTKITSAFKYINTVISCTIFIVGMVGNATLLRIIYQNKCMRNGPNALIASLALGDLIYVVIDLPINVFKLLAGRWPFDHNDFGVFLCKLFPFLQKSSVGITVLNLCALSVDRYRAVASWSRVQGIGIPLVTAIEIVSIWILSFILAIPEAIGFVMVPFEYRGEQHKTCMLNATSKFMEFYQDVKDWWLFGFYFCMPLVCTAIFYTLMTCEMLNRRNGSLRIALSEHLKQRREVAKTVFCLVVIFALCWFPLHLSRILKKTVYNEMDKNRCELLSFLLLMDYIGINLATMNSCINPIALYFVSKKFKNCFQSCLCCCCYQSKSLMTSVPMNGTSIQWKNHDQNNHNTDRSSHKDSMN
Briefly: Antagonist activity at recombinant human ETA receptor assessed as inhibition of agonist induced effect at 10 uM by aequorin reporter based assay. It counts as functional.

Series [7] deals with SH-SY5Y. Briefly: Cytotoxicity against human SH-SY5Y cells assessed as reduction in cell viability after 72 hrs by MTT assay. It counts as cell-based.
The target of series [8] is 5-hydroxytryptamine receptor 7 (Homo sapiens) (UniProt P34969). Briefly: Antagonist activity at recombinant human 5-HT7R assessed as inhibition of agonist-induced cAMP induction at 10 uM by HTRF assay. In kind it is functional.
For series [9], the target named is Beta-2 adrenergic receptor (Homo sapiens) (UniProt P07550). Briefly: Antagonist activity at recombinant human beta-2 adrenergic receptor assessed as inhibition of agonist-induced cAMP induction at 10 uM by HTRF assay. In kind it is functional.
Series [10] has as its target T4, Vasoactive intestinal polypeptide receptor 1 (Homo sapiens) (UniProt P32241).
T4 sequence (whole entry): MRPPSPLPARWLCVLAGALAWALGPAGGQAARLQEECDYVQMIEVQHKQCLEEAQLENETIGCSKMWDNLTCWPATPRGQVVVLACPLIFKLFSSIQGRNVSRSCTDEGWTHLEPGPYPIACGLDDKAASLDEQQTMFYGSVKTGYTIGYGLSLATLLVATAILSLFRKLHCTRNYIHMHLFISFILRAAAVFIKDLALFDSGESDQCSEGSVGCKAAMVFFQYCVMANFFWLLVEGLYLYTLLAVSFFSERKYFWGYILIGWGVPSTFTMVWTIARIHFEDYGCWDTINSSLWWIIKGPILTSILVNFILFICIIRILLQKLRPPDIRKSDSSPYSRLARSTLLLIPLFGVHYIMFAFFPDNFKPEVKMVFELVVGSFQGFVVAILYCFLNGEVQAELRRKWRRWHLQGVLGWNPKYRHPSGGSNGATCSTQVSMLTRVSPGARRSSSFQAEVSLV
Briefly: Antagonist activity at recombinant human VPAC1 receptor assessed as inhibition of agonist-induced effect at 10 uM by aequorin reporter based assay. It counts as functional.

For series [11], the target named is T2, Type-1 angiotensin II receptor (Homo sapiens). Briefly: Agonist activity at recombinant human AT1 receptor […] at 10 uM by aequorin reporter based assay relative to agonist. It counts as functional.
Series [12] concerns S1R (sigma-1 receptor). Briefly: Selectivity index, ratio of IC50 for human SH-SY5Y cells to Ki for S1R in human Jurkat cell membranes. In kind it is toxicity, cell-based.
The target of series [13] is Mu-type opioid receptor (Homo sapiens) (UniProt P35372). Briefly: Antagonist activity at human mu-type opioid receptor assessed as inhibition of agonist-induced effect at 10 uM by GTPgamma[35S] binding-based assay. It counts as functional.
Series [14] has as its target Glutamate [NMDA] receptor (Homo sapiens) (UniProt Q05586+Q12879+Q13224+O15399+O60391+Q14957+Q8TCU5). Briefly: Antagonist activity at recombinant human NMDA receptor assessed as inhibition of agonist-induced cAMP levels at 10 uM. In kind it is protein-complex assay.
Series [15] addresses Histamine H2 receptor (Homo sapiens) (UniProt P25021). Briefly: Antagonist activity at recombinant human histamine H2 receptor assessed as inhibition of agonist-induced cAMP levels at 10 uM by HTRF assay. It counts as functional.
Series [16] addresses Vasopressin V1a receptor (Homo sapiens) (UniProt P37288). Briefly: Antagonist activity at recombinant human V1A receptor assessed as inhibition of agonist-induced effect at 10 uM by aequorin reporter based assay. It counts as functional.

Sequence of Delta-type opioid receptor (Homo sapiens) (P41143 whole entry): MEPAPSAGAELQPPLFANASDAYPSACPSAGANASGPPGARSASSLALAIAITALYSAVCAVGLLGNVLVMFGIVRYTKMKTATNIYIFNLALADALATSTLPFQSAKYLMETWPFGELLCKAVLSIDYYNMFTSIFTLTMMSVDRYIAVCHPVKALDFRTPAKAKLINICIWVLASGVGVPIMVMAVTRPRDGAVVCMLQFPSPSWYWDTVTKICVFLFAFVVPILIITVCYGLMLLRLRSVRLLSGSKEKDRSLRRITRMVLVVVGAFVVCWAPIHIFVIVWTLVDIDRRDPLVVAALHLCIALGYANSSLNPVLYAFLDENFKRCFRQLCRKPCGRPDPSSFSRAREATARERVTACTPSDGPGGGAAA
Sequence of 5-hydroxytryptamine receptor 4 (Homo sapiens) (Q13639 whole entry): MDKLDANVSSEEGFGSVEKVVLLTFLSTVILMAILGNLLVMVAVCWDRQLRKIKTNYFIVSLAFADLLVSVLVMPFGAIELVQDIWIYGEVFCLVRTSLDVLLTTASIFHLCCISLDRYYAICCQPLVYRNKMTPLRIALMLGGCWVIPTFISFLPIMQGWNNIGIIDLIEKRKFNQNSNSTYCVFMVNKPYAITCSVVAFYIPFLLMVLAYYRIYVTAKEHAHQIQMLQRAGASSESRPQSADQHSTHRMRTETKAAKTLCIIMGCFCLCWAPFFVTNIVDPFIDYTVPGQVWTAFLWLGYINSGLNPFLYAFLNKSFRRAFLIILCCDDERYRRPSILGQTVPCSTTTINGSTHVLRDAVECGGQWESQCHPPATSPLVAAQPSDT
Sequence of 5-hydroxytryptamine receptor 7 (Homo sapiens) (P34969 whole entry): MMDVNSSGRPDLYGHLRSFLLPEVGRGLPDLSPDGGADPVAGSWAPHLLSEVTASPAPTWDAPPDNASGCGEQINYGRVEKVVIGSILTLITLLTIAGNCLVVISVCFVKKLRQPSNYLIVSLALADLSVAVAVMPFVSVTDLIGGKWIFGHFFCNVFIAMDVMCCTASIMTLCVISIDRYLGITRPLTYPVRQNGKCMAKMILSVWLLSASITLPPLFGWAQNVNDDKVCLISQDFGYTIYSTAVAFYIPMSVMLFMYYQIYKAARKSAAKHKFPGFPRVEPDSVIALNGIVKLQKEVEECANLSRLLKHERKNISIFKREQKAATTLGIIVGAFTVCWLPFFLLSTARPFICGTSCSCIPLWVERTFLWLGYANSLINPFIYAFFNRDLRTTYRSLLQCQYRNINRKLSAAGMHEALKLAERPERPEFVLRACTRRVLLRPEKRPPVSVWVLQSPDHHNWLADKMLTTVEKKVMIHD
Sequence of Mu-type opioid receptor (Homo sapiens) (P35372 whole entry): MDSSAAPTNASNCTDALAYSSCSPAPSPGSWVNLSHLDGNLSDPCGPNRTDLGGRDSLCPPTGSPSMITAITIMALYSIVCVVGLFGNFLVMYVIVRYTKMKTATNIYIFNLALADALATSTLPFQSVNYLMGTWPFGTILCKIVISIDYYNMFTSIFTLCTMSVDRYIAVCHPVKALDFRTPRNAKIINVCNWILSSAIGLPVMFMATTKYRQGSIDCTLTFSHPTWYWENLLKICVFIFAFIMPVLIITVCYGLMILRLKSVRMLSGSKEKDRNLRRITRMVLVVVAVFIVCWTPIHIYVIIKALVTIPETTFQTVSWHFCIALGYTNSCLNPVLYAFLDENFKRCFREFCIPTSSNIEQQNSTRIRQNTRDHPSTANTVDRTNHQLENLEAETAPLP
Sequence of Beta-2 adrenergic receptor (Homo sapiens) (P07550 whole entry, looked up): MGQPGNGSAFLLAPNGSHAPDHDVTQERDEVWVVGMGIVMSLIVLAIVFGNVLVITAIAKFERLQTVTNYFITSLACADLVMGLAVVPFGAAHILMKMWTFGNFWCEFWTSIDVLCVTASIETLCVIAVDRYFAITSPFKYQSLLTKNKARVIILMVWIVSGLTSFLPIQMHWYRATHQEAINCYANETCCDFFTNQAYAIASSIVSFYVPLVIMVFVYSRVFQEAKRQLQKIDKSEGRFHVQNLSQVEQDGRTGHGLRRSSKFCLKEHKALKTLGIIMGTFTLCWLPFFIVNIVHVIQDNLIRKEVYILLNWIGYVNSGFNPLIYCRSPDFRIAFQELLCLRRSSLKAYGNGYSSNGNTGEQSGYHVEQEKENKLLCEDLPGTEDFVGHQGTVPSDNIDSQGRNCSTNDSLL
Sequence of Cannabinoid receptor 1 (Homo sapiens) (P21554 whole entry): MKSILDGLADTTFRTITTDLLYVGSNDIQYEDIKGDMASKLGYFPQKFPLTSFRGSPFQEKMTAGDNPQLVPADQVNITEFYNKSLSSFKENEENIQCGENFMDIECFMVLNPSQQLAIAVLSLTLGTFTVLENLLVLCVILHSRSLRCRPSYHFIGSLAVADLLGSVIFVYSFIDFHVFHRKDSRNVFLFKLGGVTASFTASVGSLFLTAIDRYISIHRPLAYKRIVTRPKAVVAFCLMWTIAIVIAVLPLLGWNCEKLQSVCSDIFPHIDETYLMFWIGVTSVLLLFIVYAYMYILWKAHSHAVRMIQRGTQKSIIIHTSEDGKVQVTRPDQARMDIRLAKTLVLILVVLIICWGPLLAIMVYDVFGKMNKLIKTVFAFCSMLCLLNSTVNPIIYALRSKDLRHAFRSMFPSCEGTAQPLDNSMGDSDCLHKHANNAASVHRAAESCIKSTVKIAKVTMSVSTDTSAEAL
Sequence of Histamine H2 receptor (Homo sapiens) (P25021 whole entry): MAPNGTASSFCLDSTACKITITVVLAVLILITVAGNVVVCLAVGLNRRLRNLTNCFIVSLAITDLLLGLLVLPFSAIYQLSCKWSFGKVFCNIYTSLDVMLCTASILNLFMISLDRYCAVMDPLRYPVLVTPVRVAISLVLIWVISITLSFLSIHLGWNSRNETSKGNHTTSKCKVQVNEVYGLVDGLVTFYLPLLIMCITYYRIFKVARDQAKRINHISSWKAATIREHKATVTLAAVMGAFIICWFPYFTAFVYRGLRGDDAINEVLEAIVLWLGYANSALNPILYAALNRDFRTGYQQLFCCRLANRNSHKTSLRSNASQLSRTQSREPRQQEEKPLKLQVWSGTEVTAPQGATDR
Sequence of Vasopressin V1a receptor (Homo sapiens) (P37288 whole entry, looked up): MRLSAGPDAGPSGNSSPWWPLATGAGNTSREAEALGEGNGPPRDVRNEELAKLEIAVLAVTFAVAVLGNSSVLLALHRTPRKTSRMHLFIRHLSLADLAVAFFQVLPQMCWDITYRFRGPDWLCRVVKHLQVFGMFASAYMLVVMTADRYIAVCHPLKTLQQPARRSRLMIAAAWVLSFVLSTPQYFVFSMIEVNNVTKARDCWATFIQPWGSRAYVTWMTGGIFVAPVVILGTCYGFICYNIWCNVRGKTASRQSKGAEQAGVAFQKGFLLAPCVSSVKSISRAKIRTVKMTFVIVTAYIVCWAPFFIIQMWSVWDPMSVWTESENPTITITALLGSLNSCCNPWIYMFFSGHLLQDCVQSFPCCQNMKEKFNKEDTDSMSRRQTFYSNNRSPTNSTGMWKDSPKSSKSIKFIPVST

Take `CN(CCCNC(=O)c1ccc(Cl)cc1)Cc1ccccc1`: the inhibition was -4% in series [1]; 5% in series [2]; 9% in series [3]; -3% in [5]; -5% in series [6]; -1% in series [8]. Moreover, the inhibition stood at 0% in [9]; 7% in series [10]; 8% in series [13]; 8% in series [14]; 7% in series [15]. The Activity is -9% in series [4] and 0% in series [11]. Besides, the negative logarithm of the IC50 (pIC50) in series [7] was under 4.00. Besides, the selectivity ratio in series [12] was over 31200.

On to `CN(CCCNC(=O)c1cccc(Br)c1)Cc1ccccc1`, for which the inhibition is -5% in series [1]; 3% in series [2]; 7% in [3]; 7% in series [5]; -9% in series [6]; -4% in series [8]. Besides, the inhibition came out at 0% in series [9]; 31% in [10]; 29% in series [13]; 5% in series [14]; 9% in series [15]; 14% in [16]. The Activity was -1% in series [4] and 0% in [11]. The negative-log IC50 (pIC50) in series [7] is under 4.00. Moreover, in [12], the selectivity ratio was over 25600.
